Measurements as given in patent US4742045A, “Glycopeptide antibiotics” (SmithKline Beckman Corporation, priority 1986, dated 1988).

Assays:
[1] = system: Staphylococcus aureus; test: standard microtiter assay, minimum inhibitory concentration; type: cell-based; settings: for MIC: Table 5 organism 1 S. aureus
Source text: (§1) Representative results of standard microtiter assays are reported in Tables 1, 2 and 3 which follow, as the minimum inhibitory concentration of antibiotic (μg/ml).
(§2) In Table 1, test organisms 1-13 were different strains of Staphylococcus aureus, and 14-16 were different strains of Staphylococcus epidermidis. In Table 2, test organisms 1-5 were different strains of S. aureus; 6, 8, 12 and 14 were different strains of S. epidermidis; 7 was a Staphylococcus haemolyticus; 9 and 10 were different strains of Streptococcus faecalis; 11 was a Streptococcus pyogenes; and 13 was a Staphylococcus saprophyticus. In Table 3, test organisms 1-3 were different strains of S. aureus; 4 and 6 were different strains of S. epidermidis; 5 was a S. haemolyticus and 7 and 8 were different strains of Streptococcus faecalis. Except where individual components are indicated, the CWI-785 antibiotic employed was the CWI-785 complex; in some cases, HCl salts of the CWI-785 antibiotic were employed.
(§3) The number of strains tested is shown in parentheses below each organism. The average MIC is reported in μg/ml.
(§4) In Table 5 are shown data from standard microtiter assays carried out in a presence of no serum, 50% human serum (hum.) and 50% mouse serum (mse.). The test organisms were 1: S. aureus; 2,4 and 5: different strains of S. epidermidis; 3: S. haemolyticus; 6: S. saprophyticus; 7 and 8: different strains of S. faecalis.

[2] = system: Streptococcus faecalis; test: as above; type: cell-based
Source text: as §1, §2, §3, §4

[3] = system: Streptococcus pyogenes; test: as above; type: cell-based; settings: Table 2 test organism 11, Streptococcus pyogenes
Source text: as §1, §2

[4] = system: Staphylococcus epidermidis; test: as above; type: cell-based
Source text: as §1, §2, §4

[5] = system: Staphylococcus haemolyticus; test: as above; type: cell-based; settings: for minimum inhibitory concentration: Table 2 test organism 7, Staphylococcus haemolyticus; for MIC: Table 5 organism 3 S. haemolyticus
Source text: as §1, §2, §4

[6] = system: Staphylococcus saprophyticus; test: as above; type: cell-based; settings: for minimum inhibitory concentration: Table 2 test organism 13, Staphylococcus saprophyticus; for MIC: Table 5 organism 6 S. saprophyticus
Source text: as §1, §2, §4

[7] = type: physicochemical
Source text: The invention includes within its scope pharmaceutical compositions containing at least one of the above-mentioned antibiotic compounds and a pharmaceutically acceptable carrier. The compositions may also contain other active antibacterial agents. The compositions may be made up in any pharmaceutical form appropriate for the route of administration in question. Such compositions are exemplified by solid compositions for oral administration, such as tablets, capsules, pills, powders and granules; liquid compositions for oral administration such as solutions, suspensions, syrups and elixirs; preparations for parenteral administration such as sterile solutions, suspensions or emulsions; and preparations for topical administration such as gels, creams, ointments or salves. […] In 40% prophylene glycol in water (V/V), the solubility of HPB4 free base is greater than about 200 mg/ml. […] The solubility of HPB4.K is about 300 mg/ml. The solubility of HPB4.2HCl is about 600 mg/ml.
(§5) The solubility of the potassium salt is about 300 mg/ml in water.

[8] = pH of aqueous solution; type: physicochemical; settings: 100 mg/ml aqueous solution
Experimental: as §5

[9] = system: gram-positive organisms; test: in vitro antibacterial activity (stated in words); type: cell-based; settings: in vitro data
Source text: Unless specifically indicated, as used herein, CWI-785B, HPB4 and HPB3 will mean a mixture of epimers. Analogous ' and " epimers of other components of the CWI-785 complex also exist and are included within the scope of the invention.

[10] = predicted human half-life; settings: in comparison to vancomycin
[11] = system: S. haemolyticus; test: mice infected i.p., antibiotic i.v. 1 hr post infection, ED50; type: in vivo; settings: S. haemolyticus 651 (8 × LD50) i.p., antibiotic i.v. 1 hr post infection
Experimental: (§6) In Table 6, below, is shown the ED50 in mg/kg of HPB4 in comparison to vancomycin and teicoplanin. Mice were injected i.p. with the indicated organism and then i.v., 1 hr post infection, with the indicated antibiotic.

[12] = system: S. epidermidis; test: as above; type: in vivo; settings: S. epidermidis 2479 (>1000 × LD50) i.p., antibiotic i.v. 1 hr post infection
Experimental: as §6

[13] = system: JK Diptheroids; test: MIC against an expanded panel; type: cell-based; settings: Table 4, JK Diptheroids (19 strains)
Source text: as §3

[14] = system: Group B Strep.; test: MIC against an expanded panel; type: cell-based; settings: Table 4, Group B Strep. (4 strains)
Source text: as §3

[15] = system: Group A Strep.; test: MIC against an expanded panel; type: cell-based; settings: Table 4, Group A Strep. (6 strains)
Source text: as §3

[16] = system: Viridans; test: MIC against an expanded panel; type: cell-based; settings: Table 4, Viridans (2 strains)
Source text: as §3

[17] = system: Coag-neg. Staphylococci; test: MIC against an expanded panel; type: cell-based; settings: Table 4, Coag-neg. Staphylococci (24 strains)
Source text: as §3

[18] = system: S. faecalis; test: mice infected intraperitoneally, dosed 1 hr after infection, ED50; type: in vivo
Experimental: (§7) The in vivo activity of the CWI-785 complex and its components and hydrolysis products was confirmed by administering selected CWI-785 antibiotics to mice infected with various gram-positive pathogens. In one representative assay, in which mice infected intraperitoneally with 46.8 LD50 's of S. aureus (strain 1, Tables 1 and 2) were dosed once, subcutaneously one hour after infection, the following ED50 's (mg/kg) were observed: CWI-785B: 2.4, CWI-785C: 3.1, CWI-785: 3.8, HPB3: 0.9, vancomycin: 0.7. In a second representative assay carried out as above except that mice were infected with 3.17 LD50 's of S. faecalis (strain 9, Table 2), the following ED50 's were observed: HPB3 hydrochloride: 1.6, HPB4 hydrochloride: 1.6, vancomycin: 2.2, teicoplanin: 1.3.
as §6

[19] = system: S. aureus; test: as above; type: in vivo; settings: for ED50: antibiotic i.v. 1 hr post infection
Experimental: as §7, §6

[20] = Table 2 test organism 1, S. aureus strain
[21] = Table 2 test organism 2, S. aureus strain
[22] = Table 2 test organism 3, S. aureus strain
[23] = Table 2 test organism 4, S. aureus strain
[24] = Table 2 test organism 5, S. aureus strain
[25] = Table 2 test organism 9, Streptococcus faecalis strain
[26] = Table 2 test organism 10, Streptococcus faecalis strain
[27] = Table 5 organism 7 S. faecalis, 50% Hum. Serum
[28] = Table 5 organism 7 S. faecalis, 50% Mse. Serum
[29] = Table 5 organism 7 S. faecalis, No Serum
[30] = Table 5 organism 8 S. faecalis, 50% Hum. Serum
[31] = Table 5 organism 8 S. faecalis, 50% Mse. Serum
[32] = Table 5 organism 8 S. faecalis, No Serum
[33] = Table 2 test organism 6, S. epidermidis strain
[34] = Table 2 test organism 8, S. epidermidis strain
[35] = Table 2 test organism 12, S. epidermidis strain
[36] = Table 2 test organism 14, S. epidermidis strain
[37] = Table 5 organism 2 S. epidermidis, 50% Hum. Serum
[38] = Table 5 organism 2 S. epidermidis, 50% Mse. Serum
[39] = Table 5 organism 2 S. epidermidis, No Serum
[40] = Table 5 organism 4 S. epidermidis, 50% Hum. Serum
[41] = Table 5 organism 4 S. epidermidis, 50% Mse. Serum
[42] = Table 5 organism 4 S. epidermidis, No Serum
[43] = Table 5 organism 5 S. epidermidis, 50% Hum. Serum
[44] = Table 5 organism 5 S. epidermidis, 50% Mse. Serum
[45] = Table 5 organism 5 S. epidermidis, No Serum
[46] = Table 4, S. aureus (30 strains)
[47] = Table 4, Strep. faecalis (12 strains)

CNC(C(=O)NC1C(=O)NC(CC[S+](C)[O-])C(=O)NC2C(=O)NC3C(=O)NC(C(=O)NC(C(=O)O)c4cc(O)cc(O)c4-c4cc3ccc4O)C(OC3CC(N)C(O)C(C)O3)c3ccc(c(Cl)c3)Oc3cc2cc(c3O)Oc2ccc(cc2)C1O)c1ccc(O)cc1 (centres unmarked) [HPB3]
0.8 µg/mL: minimum inhibitory concentration [1, 20] | minimum inhibitory concentration [1, 21] | minimum inhibitory concentration [1, 22] | minimum inhibitory concentration [1, 24] | MIC ([1]; 50% Hum. Serum) | MIC ([1]; 50% Mse. Serum) | MIC ([1]; No Serum) | minimum inhibitory concentration [2, 25] | minimum inhibitory concentration [2, 26] | MIC [2, 29] | MIC [2, 32] | minimum inhibitory concentration [4, 33] | minimum inhibitory concentration [4, 34] | minimum inhibitory concentration [4, 35] | minimum inhibitory concentration [4, 36] | MIC [4, 39] | MIC [4, 42] | MIC [4, 43] | MIC [4, 44] | MIC [4, 45] | minimum inhibitory concentration [6] | MIC ([6]; No Serum)
6.1 µg/mL: MIC [4, 37]
3.1 µg/mL: MIC [2, 27] | MIC [2, 28] | MIC [2, 31] | MIC ([5]; 50% Mse. Serum) | MIC ([6]; 50% Hum. Serum) | MIC ([6]; 50% Mse. Serum)
0.4 µg/mL: minimum inhibitory concentration [1, 23]
1.6 µg/mL: MIC [4, 38] | MIC [4, 40] | MIC [4, 41] | minimum inhibitory concentration [5] | MIC ([5]; No Serum)
0.1 µg/mL: minimum inhibitory concentration [3]
6.3 µg/mL: MIC [2, 30] | MIC ([5]; 50% Hum. Serum)

CNC(C(=O)NC1C(=O)NC(CCSC)C(=O)NC2C(=O)NC3C(=O)NC(C(=O)NC(C(=O)[O-])c4cc(O)cc(O)c4-c4cc3ccc4O)C(OC3CC(N)C(O)C(C)O3)c3ccc(c(Cl)c3)Oc3cc2cc(c3O)Oc2ccc(cc2)C1O)c1ccc(O)cc1.[K+] (centres unmarked) [HPB4.K]
9.29: pH of aqueous solution [8]
about 300 mg/ml: solubility [7]

CNC(C(=O)NC1C(=O)NC(CCSC)C(=O)NC2C(=O)NC3C(=O)NC(C(=O)NC(C(=O)O)c4cc(O)cc(O)c4-c4cc3ccc4O)C(O[C@H]3C[C@@H](N)[C@@H](O)[C@H](C)O3)c3ccc(c(Cl)c3)Oc3cc2cc(c3O)Oc2ccc(cc2)C1O)c1ccc(O)cc1 (some centres unmarked) [HPB4]
20 mg/kg: ED50 [11]
0.2 to 0.8 µg/mL: MIC RANGE [1, 46] | MIC RANGE [2, 47]
3.1 µg/mL: MIC [2, 27] | MIC [2, 28] | MIC [2, 30] | MIC [2, 31] | minimum inhibitory concentration [4, 34] | MIC [4, 37] | MIC [4, 38] | MIC [4, 40] | MIC [4, 41] | MIC [4, 42] | MIC [4, 43]
0.05 to 0.8 µg/mL: MIC RANGE [15]
0.025 to 0.8 µg/mL: MIC RANGE [16]
fourfold more effective: in vivo effectiveness relative to HPB4" ([18]; against S. faecalis 34358) | in vivo effectiveness relative to HPB4" ([19]; against S. aureus 127)
0.4 µg/mL: MIC50 [2, 47] | MIC [2, 29] | MIC [2, 32] | MIC50 [13] | MIC50 [15]
12.5 µg/mL: MBC50 ([2]; Table 4, Strep. faecalis MBC50)
1.6 mg/kg: ED50 ([19]; S. aureus 2620 (24 × LD50) i.p.)
2.0 mg/kg: ED50 [12]
0.4 to 3.1 µg/mL: MIC RANGE [17]
1.8 mg/kg: ED50 ([19]; S. aureus HH 127 (35 × LD50) i.p.)
more active: in vitro activity relative to the corresponding B" isomer [9]
6.3 µg/mL: MIC ([5]; 50% Hum. Serum) | MIC ([5]; 50% Mse. Serum) | MIC ([6]; 50% Hum. Serum)
0.8 µg/mL: minimum inhibitory concentration [1, 21] | minimum inhibitory concentration [1, 22] | minimum inhibitory concentration [1, 23] | minimum inhibitory concentration [1, 24] | MIC50 [1, 46] | minimum inhibitory concentration [2, 25] | minimum inhibitory concentration [2, 26] | minimum inhibitory concentration [4, 36] | MIC [4, 45] | MIC ([6]; No Serum)
0.1 to 0.8 µg/mL: MIC RANGE [14]
0.2 µg/mL: minimum inhibitory concentration [3] | MIC ([6]; 50% Mse. Serum)
1.6 µg/mL: minimum inhibitory concentration [1, 20] | MIC ([1]; 50% Hum. Serum) | MIC ([1]; 50% Mse. Serum) | MIC ([1]; No Serum) | MIC50 [17] | minimum inhibitory concentration [4, 33] | minimum inhibitory concentration [4, 35] | MIC [4, 39] | MIC [4, 44] | minimum inhibitory concentration [5] | MIC ([5]; No Serum) | minimum inhibitory concentration [6]
3.1 to 25 µg/mL: MBC RANGE ([2]; Table 4, Strep. faecalis MBC50 column)
at least 12 hours: human half-life (predicted) [10]
1.0 mg/kg: ED50 ([18]; S. faecalis 34358 (9 × LD50) i.p., antibiotic i.v. 1 hr post infection)
0.4 to 0.8 µg/mL: MIC RANGE [13]
